Assay results published in PMC9562188, “Characterization of the Aquaporin-9 Inhibitor RG100204 In Vitro and in db/db Mice” (Cells, 2022).

Target: T1, Aquaporin-9 (AQP9) (Homo sapiens, UniProt O43315)
T1 construct: 10×His-hAQP9 (N-terminal 10-histidine tag), purified from P. pastoris, reconstituted in proteoliposomes
T1 sequence (O43315 1-295): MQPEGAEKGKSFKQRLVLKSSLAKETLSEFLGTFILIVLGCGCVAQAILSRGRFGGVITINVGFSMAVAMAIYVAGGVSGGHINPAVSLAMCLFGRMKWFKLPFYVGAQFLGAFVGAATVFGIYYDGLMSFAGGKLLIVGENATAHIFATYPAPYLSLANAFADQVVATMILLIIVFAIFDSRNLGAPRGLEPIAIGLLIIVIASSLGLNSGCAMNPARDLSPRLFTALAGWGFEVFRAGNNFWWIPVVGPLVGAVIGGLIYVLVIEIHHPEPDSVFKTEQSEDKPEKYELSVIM
Assay: stopped-flow light scattering of purified AQP9 proteoliposomes ([…], −[…] Pgly); IC50 (water permeability; glycerol […]) from calcein quenching in human AQP9-expressing CHO cells
Format: cell-based

O=C(CCc1ccc(O)cc1)c1c(O)cc(O)cc1O [phlor, phloretin]
IC50: ~200 nM
